Laboratory results published in patent US20240382400A1 (The Procter & Gamble Company, priority 2023, published 2024).
Read-outs that look alike come from different tables or passages of the source.

Key:
[1] = acidic pKa; cited from earlier work
[2] = pH 7.0 and 20° C.; cited from earlier work
[3] = cited from earlier work
[4] = tested on: PGE2; assay: PGE2 anti-inflammation assay in-vitro; format: cell-based; conditions: compared to niacinamide

## O=C([O-])C=Cc1ccccc1.[Na+] [Sodium Cinnamate]
[1]
  pKa: 4.32

## O=C(O)C=Cc1ccccc1 [cinnamic acid]
[1]
  pKa: 4.32

## O=C(O)/C=C/c1ccc(O)cc1 [p-coumaric acid]
[2]
  solubility in water: approximately 345 mg/mL
[3]; pH 3
  conjugate base form: approximately 13.4%
[3]; pH 7
  conjugate base form: approximately 99.6%

## Methyl niacinamide
[4]
  efficacy in PGE2 anti-inflammation assay: equivalent and/or improved efficacy to niacinamide
